Reference: paper PMC6072516, “Rational design and synthesis of novel phenylsulfonyl-benzamides as anti-prostate cancer agents” (MedChemComm, 2017)
Where two headings read alike, the source gives them in different places.

Legend:
[1] = tested on: HEK293 human embryonic kidney cells; assay: Cell Titer Blue viability (cytotoxicity) assay; assay type: cell-based
Experimental: (§1) A Cell Titer Blue viability assay was performed in the human embryonic kidney cell line HEK293, in order to evaluate the cytotoxicity profile of the newly prepared compounds. […] .
(§2) Fig. 5 HEK293 human embryonic kidney cells were treated at 70% confluence with negative controls (0.1% DMSO, BICAL at 10 μM), positive control (10% DMSO) and compounds at 10 μM concentration for 24 hours. […] Fluorescence was measured at 560/590 nm using a CLARIOstar luminescence plate reader (BMG Labtech). N = 4, n = 6 for controls, n = 3 for drugs. […]
(§3) for calculation of the geometric mean value. […]
(§4) of 0.05% Trypsin/EDTA. […] When all cells […]
(§5) chamber counting grid (Immune Systems). […]
(§6) confluence for assay the next day. […]
(§7) drugs at 10 µM concentration.
(§8) 100 µl media. […] Fluorescence was measured
(§9) USA). […] The Dunnett’s multiple […]
(§10) comparison test was used to compare each drug and the positive control to the negative control […]
(§11) Compound R1 X R2 Cell Viability Antiproliferative
(§12) Mean (%)* SEM** Abs. IC50
(§13) Table S2. Cell Viability assay at 10 µM. * Mean % of cell viability relative to control; ** Errors are calculated as standard error of the mean; ***Geometric mean.

[2] = Cell Titer Blue viability (cytotoxicity) assay; assay type: cell-based, human; conditions: human
Experimental: as §1, §2, §3, §4, §5, §6, §7, §8, §9, §10, §11, §12, §13

[3] = tested on: four human prostate cancer cell lines: LNCaP, 22Rv1, VCaP, DU145; assay: Antiproliferative assay, overall effect in the four cell lines (geometric mean); assay type: cell-based; conditions: for IC50: geometric mean of the four cell lines, read-out: Absolute IC50 Geo. mean
Experimental: PCR based DNA-fingerprinting methodology.
density of 4.000 – 30.000 cells/well.
test compound were added.
concentrations in triplicate.
After an incubation period of
control/background ratio >3.0
The absolute IC50 value reflects the
The calculation was done by a 4
for calculation of the geometric mean value.
of 0.05% Trypsin/EDTA. […] When all cells

DU-145 = assay: 2D monolayer antiproliferative assay (propidium iodide), DU-145; conditions: Homo sapiens, DU-145, 96 h, read-out: Absolute IC50 DU-145
Experimental: (§14) All new compounds along with the two standards were tested for their ability to inhibit survival and/or cell proliferation in four human prostate cancer cell lines: LNCaP, 22Rv1, VCaP, androgen-sensitive cell lines, and DU145, a non hormone-sensitive cell line.
(§15) Compound Handling: Stock solutions for all inhibitors were prepared in DMSO at a
(§16) were well soluble at this concentration in DMSO and precipitation was not observed for any
(§17) compound dissolved in 100% DMSO. Aliquots of the stock solution were thawed on the day
(§18) of use and stored at room temperature prior to and during treatment. The subsequent dilutions
(§19) were done with complete RPMI1640 cell culture medium. The DMSO stock solution was first
(§20) Starting with this solution, serial dilutions in
(§21) half-log steps with cell culture medium were done using an intermediate dilution plate. Finally,
(§22) 10 µl taken from the intermediate dilution plate were transferred to 140 µl / well of the cell
(§23) culture plate. Thus, at the highest test concentration the DMSO stock was diluted 1:330,
(§24) corresponding to a maximum DMSO concentration of 0.3 % v/v in the assay. Solubility of the
(§25) diluted compounds in the assay was monitored under the microscope by visual inspection of
(§26) the treated cell lines after the 4 days incubation. Precipitation as observed by crystalline
(§27) Tumor Cell lines: The cell line panel used for assessing the novel inhibitors comprised four
(§28) cell lines derived from human prostate cancers.
(§29) 6-7 Cell lines were routinely passaged once or twice weekly and maintained in culture for up to 20 passages. All cells were grown at 37°C in
(§30) glutamine, #FG1385, Biochrom, Berlin, Germany) supplemented with 10% (v/v) fetal calf serum (Sigma, Taufkirchen, Germany) and 0.1 mg/mL gentamicin (Life Technologies,
(§31) Cell Proliferation Assay: A modified propidium iodide (PI) based monolayer assay was used
(§32) exponential phase cultures, counted and plated in 96-well flat-bottom micro titer plates at a cell density of 4.000 – 30.000 cells/well. After a 24 h recovery period to allow the cells to resume exponential growth, 10 µl of culture medium (six control wells/plate) or culture medium with test compound were added. The compounds were applied in half-log increments at 10 concentrations in triplicate. After a total treatment period of 96 h, cells were washed with 200 µl PBS to remove dead cells and debris. Then, 200 µl of a solution containing 7 µg/ml propidium iodide (PI) and 0.1% (v/v) Triton X-100 was added. After an incubation period of 1-2 hours at room temperature, fluorescence (FU) was measured using the EnSpire Multimode Plate Reader (excitation λ= 530 nm, emission λ= 620 nm) to quantify the amount of attached
(§33) For calculation of mean IC50 values the geometric mean was used.
(§34) Data Evaluation: An assay was considered fully evaluable if the following quality control
(§35) - Z’-factor calculated within the assay plate ≥0.59
(§36) - fluorescence intensity of >500 U from the untreated control wells, equivalent to a
(§37) - coefficient of variation in the growth control wells ≤30
(§38) Compound effects were expressed in terms of the percentage of the fluorescence signal, obtained by comparison of the mean signal in the treated wells with the mean signal of the untreated controls (expressed by the test-versus-control value, T/C-value [%]):

LNCaP = assay: 2D monolayer antiproliferative assay (propidium iodide), LNCaP; conditions: for IC50: Homo sapiens, LNCaP, 96 h, read-out: Absolute IC50 LNCaP
Experimental: as §14, §15, §16, §17, §18, §19, §20, §21, §22, §23, §24, §25, §26, §27, §28, §29, §30, §31, §32, §33, §34, §35, §36, §37, §38

22Rv1 = assay: 2D monolayer antiproliferative assay (propidium iodide), 22Rv1; conditions: Homo sapiens, 22Rv1, 96 h, read-out: Absolute IC50 22Rv1
Experimental: as §14, §15, §16, §17, §18, §19, §20, §21, §22, §23, §24, §25, §26, §27, §28, §29, §30, §31, §32, §33, §34, §35, §36, §37, §38

VCaP = assay: 2D monolayer antiproliferative assay (propidium iodide), VCaP; conditions: Homo sapiens, 96 h, read-out: Absolute IC50 VCaP
Experimental: as §14, §15, §16, §17, §18, §19, §20, §21, §22, §23, §24, §25, §26, §27, §28, §29, §30, §31, §32, §33, §34, §35, §36, §37, §38

[4] = 10 µM, 24 h, HEK293, mean % of cell viability relative to control, read-out: Cell Viability Mean (%)

IC50 ([3]; Homo sapiens)	IC50 [3]	IC50 (DU-145)	IC50 (LNCaP)	IC50 (22Rv1)	IC50 (VCaP)	increase of IC50 values, sulfone vs thioether ([3]; 11c vs 13c)	Absolute IC50 LNCaP (LNCaP; 96 h treatment, mean of triplicate, SD ±10%)	Compound	Cell Viability Mean (%) ([1]; 10 µM)	viability at 24 h, 10 µM ([2]; HEK293 cells, 10 µM, 24 h, HEK293, mean % of cell viability relative to control, read-out: Cell Viability Mean (%))	viability at 24 h, 10 µM [2, 4]	viability at 24 h, 10 µM [2]	reduction of overall effect in the four cell lines, ortho vs meta CF3 ([3]; 11h vs 11i)	reduction of cell viability / cells killed ([1]; human, 24 h, 10 μM)
< 16 µM	12.5 µM	9.89 µM	12.5 µM	6.96 µM	28.2 µM	–	–	O=C(Nc1cccc(C(F)(F)F)c1)c1ccc(Sc2cccc(C(F)(F)F)c2)cc1 [Compound 12h]	–	–	–	112%	–	–
8.5 µM	–	9.92 µM	8.41 µM	6.44 µM	9.72 µM	up to 2 fold	–	O=C(Nc1cc(C(F)(F)F)cc(C(F)(F)F)c1)c1ccc(S(=O)(=O)c2ccc(O)cc2)cc1 [Compound 13c]	–	–	–	65.7%	–	–
25.2 µM	–	27.8 µM	23.2 µM	20.7 µM	30.5 µM	–	–	O=C(Nc1cc(C(F)(F)F)ccc1C(F)(F)F)c1ccc(S(=O)(=O)c2ccc(O)cc2)cc1 [Compound 13d]	–	–	–	–	–	–
5.37 µM	–	10.8 µM	2.49 µM	5.78 µM	5.35 µM	–	–	O=C(Nc1ccc(S(F)(F)(F)(F)F)cc1)c1ccc(S(=O)(=O)c2ccc(O)cc2)cc1 [Compound 13e, 4-((4-Hydroxyphenyl)sulfonyl)-N-(4-(pentafluorothio)phenyl)benzamide]	–	–	–	38.4%	–	more than 50%
6.18 µM	–	6.01 µM	3.98 µM	5.66 µM	10.8 µM	–	–	O=C(Nc1cccc(S(F)(F)(F)(F)F)c1)c1ccc(S(=O)(=O)c2ccc(O)cc2)cc1 [Compound 13f, N-(3-(Pentafluorosulfanyl)phenyl)-4-((4-hydroxyphenyl)sulfonyl)benzamide]	–	–	–	76.2%	–	–
19.7 µM	–	30.7 µM	10.8 µM	16.8 µM	27.2 µM	–	–	O=C(Nc1ccc(C(F)(F)F)cc1)c1ccc(S(=O)(=O)c2ccc(O)cc2)cc1 [Compound 13g]	–	–	–	61.8%	–	–
< 16 µM	16.8 µM	17.7 µM	10.2 µM	15.1 µM	30.1 µM	–	–	O=C(Nc1cccc(C(F)(F)F)c1)c1ccc(S(=O)(=O)c2ccc(O)cc2)cc1 [Compound 13h]	–	–	–	87.6%	–	–
49.1 µM	–	45.9 µM	39.3 µM	49.3 µM	65.2 µM	–	–	O=C(Nc1ccccc1C(F)(F)F)c1ccc(S(=O)(=O)c2ccc(O)cc2)cc1 [Compound 13i]	–	–	–	129%	–	–
3.75 µM	–	11 µM	0.9 µM	5.6 µM	3.53 µM	–	sub μM	O=C(Nc1ccc(S(F)(F)(F)(F)F)cc1)c1ccc([S+]([O-])c2ccc(O)cc2)cc1 (stereo not shown) [Compound 14e, 4-((4-Hydroxyphenyl)sulfinyl)-N-(4-(pentafluorothio)phenyl)benzamide]	–	–	–	59.7%	–	–
–	–	> 100 µM	62 µM	> 100 µM	97.6 µM	–	–	O=C(Nc1ccccc1C(F)(F)F)c1ccc([S+]([O-])c2ccc(O)cc2)cc1 (stereo not shown) [Compound 14i]	–	–	–	104%	–	–

The remaining lines, values behind:

Compound	IC50 ([3]; Homo sapiens)	IC50 [3]	IC50 (DU-145)	IC50 (LNCaP)	IC50 (22Rv1)	IC50 (VCaP)	increase of IC50 values, sulfone vs thioether ([3]; 11c vs 13c)	Absolute IC50 LNCaP (LNCaP; 96 h treatment, mean of triplicate, SD ±10%)	Cell Viability Mean (%) ([1]; 10 µM)	viability at 24 h, 10 µM ([2]; HEK293 cells, 10 µM, 24 h, HEK293, mean % of cell viability relative to control, read-out: Cell Viability Mean (%))	viability at 24 h, 10 µM [2, 4]	viability at 24 h, 10 µM [2]	reduction of overall effect in the four cell lines, ortho vs meta CF3 ([3]; 11h vs 11i)	reduction of cell viability / cells killed ([1]; human, 24 h, 10 μM)
C[S+](C)[O-] [10% DMSO]	–	–	–	–	–	–	–	–	1.45%	–	–	–	–	–
C[C@](O)(CS(=O)(=O)c1ccc(F)cc1)C(=O)Nc1ccc(C#N)c(C(F)(F)F)c1 [Bicalutamide, bicalutamide, reference compound]	50 µM	52.4 µM	–	–	–	–	–	–	–	94.6%	–	–	–	–
N#Cc1ccc(NC(=O)c2ccc(Sc3ccc(O)cc3)cc2)cc1C(F)(F)F [Compound 11a]	7.08 µM	–	7.77 µM	5.43 µM	6.24 µM	9.55 µM	–	–	–	–	65.7%	–	–	–
O=C(Nc1ccc([N+](=O)[O-])c(C(F)(F)F)c1)c1ccc(Sc2ccc(O)cc2)cc1 [Compound 11b]	4.68 µM	–	5.74 µM	3.58 µM	4.5 µM	5.19 µM	–	–	–	–	–	65.4%	–	–
O=C(Nc1cc(C(F)(F)F)cc(C(F)(F)F)c1)c1ccc(Sc2ccc(O)cc2)cc1 [Compound 11c]	3.28 µM	–	5.6 µM	2.39 µM	3.35 µM	2.59 µM	–	–	–	–	–	64.2%	–	–
O=C(Nc1cc(C(F)(F)F)ccc1C(F)(F)F)c1ccc(Sc2ccc(O)cc2)cc1 [Compound 11d]	12.1 µM	–	16.6 µM	11.4 µM	10.3 µM	10.9 µM	–	–	–	–	–	53.7%	–	–
O=C(Nc1ccc(S(F)(F)(F)(F)F)cc1)c1ccc(Sc2ccc(O)cc2)cc1 [Compound 11e]	5.43 µM	–	6.76 µM	4.86 µM	3.71 µM	7.15 µM	–	–	–	–	–	49.5%	–	–
O=C(Nc1cccc(S(F)(F)(F)(F)F)c1)c1ccc(Sc2ccc(O)cc2)cc1 [Compound 11f]	4.01 µM	–	4.35 µM	3.32 µM	2.94 µM	6.1 µM	–	–	–	–	–	60.5%	–	–
O=C(Nc1ccc(C(F)(F)F)cc1)c1ccc(Sc2ccc(O)cc2)cc1 [Compound 11g]	8.09 µM	–	8.55 µM	8.3 µM	6.23 µM	9.68 µM	–	–	–	–	–	66.3%	–	–
O=C(Nc1cccc(C(F)(F)F)c1)c1ccc(Sc2ccc(O)cc2)cc1 [Compound 11h]	–	–	5.95 µM	9.66 µM	5.73 µM	10.6 µM	–	–	–	–	–	85.6%	–	–
O=C(Nc1ccccc1C(F)(F)F)c1ccc(Sc2ccc(O)cc2)cc1 [Compound 11i]	25.2 µM	–	35.7 µM	11.4 µM	30.9 µM	32.3 µM	–	–	–	–	–	111%	3 fold	–
N#Cc1ccc(NC(=O)c2ccc(Sc3cccc(C(F)(F)F)c3)cc2)cc1C(F)(F)F [Compound 12a]	5.5 µM	–	5.12 µM	8.87 µM	3.57 µM	5.66 µM	–	–	–	–	60%	–	–	–
N#Cc1ccc(NC(=O)c2ccc(S(=O)(=O)c3ccc(O)cc3)cc2)cc1C(F)(F)F [Compound 13a]	8.84 µM	–	12.6 µM	4.68 µM	12.1 µM	8.56 µM	–	–	–	–	73%	–	–	–
O=C(Nc1ccc([N+](=O)[O-])c(C(F)(F)F)c1)c1ccc(S(=O)(=O)c2ccc(O)cc2)cc1 [Compound 13b]	–	–	8.85 µM	4.96 µM	7.3 µM	8.57 µM	–	–	–	–	–	82.3%	–	–
N#Cc1ccc(NC(=O)c2ccc(S(=O)(=O)c3cccc(C(F)(F)F)c3)cc2)cc1C(F)(F)F [Compound 15a]	4.71 µM	–	4.7 µM	3.73 µM	3.57 µM	7.87 µM	–	–	–	–	79%	–	–	–
O=C(Nc1cccc(C(F)(F)F)c1)c1ccc(S(=O)(=O)c2cccc(C(F)(F)F)c2)cc1 [Compound 15h]	–	–	–	–	–	–	–	–	–	–	–	83.9%	–	–
